This is an account of results in US11518764B2, “Substituted heteroaryls as inhibitors of the BCL6 BTB domain protein-protein interaction” (Ontario Institute for Cancer Research (OICR), priority 2018, dated 2022).

The target of one test is BCL6 BTB domain (Homo sapiens (Human), UniProt P41182). Kind of test: Surface plasmon resonance (SPR) assay. The test is classed as binding. As to conditions: BCL6 BTB domain captured on SA chip, single cycle kinetics. In general terms: SPR reads the build-up and loss of mass on a sensor chip optically.
For test [1], the system named is BCL6 reporter construct (3xBCL6-TK-Luc) in SuDHL4 cells. Kind of test: Cell-based luciferase assay. The following applies: Homo sapiens, SU-DHL-4, 48 h, read-out: Luciferase-Assay EC50, uM), SuDHL4-3xBCL6-TK-Luc cells, two days, high dose 10 uM. A digest of the protocol:
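SuDHL4 cells stably carrying a 3×BCL6-site TK-promoter firefly luciferase reporter, seeded at 15,000 cells/well, were dosed over a 10-point range (top 10 uM) and grown two days at 37 °C, 5% CO2. Luminescence then read after adding neolite reagent at room temperature.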

The test system of a further test is Karpas422 cells. Kind of test: Tumor cell growth inhibition assay. The test is classed as cell-based. The following applies: Homo sapiens, KARPAS-422, 144 h, read-out: Tumor Growth Inhibition in Karpas-422 (IC50, uM), Karpas422 cells, six days, ATPlite. Put shortly:
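Growth inhibition was measured by ATPlite luminescence after six days of culture at 37° C. in 5% CO2. Karpas422 cells were seeded at 2,000 per well in Alpha-MEM plus 10% FBS. Compounds were given as a 10-point concentration series with a highest dose of 5 uM.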
A general note: In ATP-based viability assays light output follows the ATP content of the culture.

For `Cc1nc2c(c(-c3cc(C(N)=O)c(O)c(F)c3F)cn2CC(=O)Nc2cc(N3CCN(C)CC3)ncc2Cl)c(=O)n1C` [Compound I-305], the affinity at BCL6 BTB domain, expressed as Kd, was 70.5 nM. The EC50 in test [1] is 0.647 µM. In the test on Karpas422 cells, the IC50 was 1.32 µM.
Consider `Cc1nc2c(c(-c3cc(Cl)c(O)c(C(N)=O)c3)cn2CC(=O)Nc2cc(N3CCN(C)CC3)ncc2Cl)c(=O)n1C` [Compound I-306], for which, at BCL6 BTB domain, binding was put at a Kd of 15.8 nM. In test [1], the EC50 was determined as 0.106 µM. In addition, in the test on Karpas422 cells, the IC50 was 0.265 µM.
The corresponding values for `Cc1nc2c(c(-c3cc(C(N)=O)c(O)c4c3OCO4)cn2CC(=O)Nc2cc(N3CCOC[C@@H]3C)ncc2Cl)c(=O)n1C` [Compound I-308] are 2.05 nM, 0.0368 µM and 0.0161 µM.
On the same counts, the results for `Cc1nc2c(c(-c3cc(C(N)=O)c(O)c4c3OCCO4)cn2CC(=O)Nc2cc(N3CCOC[C@@H]3C)ncc2Cl)c(=O)n1C` [Compound I-309] are 146 nM, 1.02 µM and 2.55 µM.
On the same counts, the results for `C[C@H]1CN(Cc2ccccc2)CCN1c1cc(NC(=O)Cn2cc(-c3cc(C(N)=O)c(O)c(F)c3F)c3c(=O)n(C)cnc32)c(Cl)cn1` [Compound I-314] are 117 nM, 0.901 µM and 6.7 µM.
Compound `Cc1nc2c(c(-c3cc(Cl)c(O)c(C(N)=O)c3)cn2CC(=O)Nc2cc(N3CCOC[C@@H]3C)nc(F)c2Cl)c(=O)n1C` [Compound I-315] displayed a Kd on BCL6 BTB domain of 14.2 nM. The EC50 in test [1] was found to be 0.114 µM. Also, the IC50 in the test with Karpas422 cells turned out to be 0.147 µM.
Consider `Cc1nc2c(c(-c3cc(C(N)=O)c(O)c(F)c3F)cn2CC(=O)Nc2cc(N3CCOC[C@@H]3C)nc(F)c2Cl)c(=O)n1C` [Compound I-316], for which the Kd at BCL6 BTB domain is 24.1 nM. Besides, in test [1], the EC50 came out at 0.243 µM. In addition, the IC50 in the test with Karpas422 cells stood at 0.376 µM.
On the same counts, the results for `C[C@H]1COCCN1c1cc(NC(=O)Cn2cc(-c3cc(C(N)=O)c(O)c(F)c3F)c3c(=O)n(C)cnc32)c(Cl)c(F)n1` [Compound I-317] are 54.9 nM, 0.633 µM and 0.467 µM.
Regarding `Cn1cnc2c(c(-c3cc(C(N)=O)c(O)c(F)c3F)cn2CC(=O)Nc2cc(N3CCOCC3)nc(F)c2Cl)c1=O` [Compound I-318], at BCL6 BTB domain, the Kd was 51.8 nM. Also, in test [1], the EC50 is 0.228 µM. For the same compound, in the test on Karpas422 cells, the IC50 stood at 0.319 µM.
Consider `C[C@H]1COCCN1c1cc(NC(=O)Cn2cc(-c3cc(F)c(O)c(C(N)=O)c3)c3c(=O)n(C)cnc32)c(Cl)c(F)n1` [Compound I-319], for which the Kd on BCL6 BTB domain worked out at 3.96 nM. The EC50 in test [1] came out at 0.104 µM. In addition, in the test with Karpas422 cells, the IC50 came out at 0.0994 µM.
The corresponding values for `CN1CC2CCC(C1)N2c1cc(NC(=O)Cn2cc(-c3cc(C(N)=O)c(O)c(F)c3F)c3c(=O)n(C)cnc32)c(Cl)cn1` [Compound I-320] are 48.4 nM, 1.15 µM and 0.979 µM.
On the same counts, the results for `C[C@H]1COCCN1c1cc(NC(=O)Cn2cc(-c3cc(C(N)=O)c(O)c(F)c3F)c3c(=O)n(CC#Cc4cnn(C)c4)cnc32)c(Cl)cn1` [Compound I-321] are 9.19 nM, 0.405 µM and 0.437 µM.
On the same counts, the results for `C=C(C)c1nc2c(c(-c3cc(Cl)c(O)c(C(N)=O)c3)cn2CC(=O)Nc2cc(N3CCN(C)C[C@@H]3C)ncc2Cl)c(=O)n1C` [Compound I-322] are 34 nM, 3.09 µM and 1.19 µM.
Regarding `COCn1c(Cl)nc2c(c(-c3cc(Cl)c(O)c(C(N)=O)c3)cn2CC(=O)Nc2cc(N3CCN(C)C[C@@H]3C)ncc2Cl)c1=O` [Compound I-323], binding on BCL6 BTB domain was characterised by a dissociation constant (Kd) of 100 nM. In addition, in test [1], the EC50 was 1.09 µM. Also, the IC50 in the test on Karpas422 cells is 0.914 µM.
The corresponding values for `CN1CC2CC1CN2c1cc(NC(=O)Cn2cc(-c3cc(C(N)=O)c(O)c(F)c3F)c3c(=O)n(C)cnc32)c(Cl)cn1` (stereo not drawn) [Compound I-324] are 264 nM, 10 µM and 10 µM.
Regarding `CN1CCOC2CN(c3cc(NC(=O)Cn4cc(-c5cc(C(N)=O)c(O)c(F)c5F)c5c(=O)n(C)cnc54)c(Cl)cn3)CC21` (stereo not drawn) [Compound I-325], the Kd on BCL6 BTB domain is 40.8 nM. The EC50 in test [1] turned out to be 2 µM. The IC50 with Karpas422 cells is 1.13 µM.
On the same counts, the results for `CN(C)C1CN(c2cc(NC(=O)Cn3cc(-c4cc(C(N)=O)c(O)c(F)c4F)c4c(=O)n(C)cnc43)c(Cl)cn2)C1` [Compound I-326] are 64.5 nM, 2.35 µM and 2 µM.
The corresponding values for `CN1CCN(c2cc(NC(=O)Cn3cc(-c4cc(C(N)=O)c(O)c(F)c4F)c4c(=O)n(C)cnc43)c(Cl)cn2)C(C)(C)C1` [Compound I-327] are 271 nM, 3 µM and 2.07 µM.
Compound `Cn1cnc2c(c(-c3cc(Cl)c(O)c(C(N)=O)c3)cn2CC(=O)Nc2nc(N3CCOCC3)c(F)cc2Cl)c1=O` [Compound I-328] gave a Kd on BCL6 BTB domain of 239 nM. Moreover, the EC50 in test [1] was determined as 3.76 µM. Further, the IC50 with Karpas422 cells was 2.66 µM.
At BCL6 BTB domain, `CN1CCOC2CN(c3cc(NC(=O)Cn4cc(-c5cc(Cl)c(O)c(C(N)=O)c5)c5c(=O)n(C)cnc54)c(Cl)cn3)CC21` (stereo not drawn) [Compound I-329] gave a dissociation constant Kd of 13.4 nM. In addition, the EC50 in test [1] came out at 0.345 µM. The IC50 in the test on Karpas422 cells was 0.173 µM.
The compound `CN(C)CC1COCCN1c1cc(NC(=O)Cn2cc(-c3cc(Cl)c(O)c(C(N)=O)c3)c3c(=O)n(C)cnc32)c(Cl)cn1` (stereo not drawn) [Compound I-330] came in with a Kd on BCL6 BTB domain of 39.4 nM. Further, the EC50 in test [1] came to 0.89 µM. Also, the IC50 in the test on Karpas422 cells amounted to 0.56 µM.
On the same counts, the results for `CCN1CCN(c2cc(NC(=O)Cn3cc(-c4cc(Cl)c(O)c(C(N)=O)c4)c4c(=O)n(C)cnc43)c(Cl)cn2)[C@@H](C)C1` [Compound I-331] are 17.8 nM, 0.254 µM and 0.176 µM.
The corresponding values for `Cc1cc(NC(=O)Cn2cc(-c3cc(C(N)=O)c(O)c(F)c3F)c3c(=O)n(C)cnc32)c(Cl)cn1` [Compound I-333] are 145 nM, 2.42 µM and 4.21 µM.
The corresponding values for `Cc1cc(NC(=O)Cn2cc(-c3cc(Cl)c(O)c(C(N)=O)c3)c3c(=O)n(C)cnc32)c(Cl)cn1` [Compound I-334] are 30.5 nM, 0.475 µM and 0.829 µM.
The compound `C[C@H]1CNCCN1c1cc(NC(=O)Cn2cc(-c3cc(C(N)=O)c(O)c(F)c3F)c3c(=O)n(C)cnc32)c(Cl)cn1` [Compound I-335] came in with a Kd on BCL6 BTB domain of 24.6 nM. In addition, the EC50 in test [1] amounted to 6.92 µM. In addition, in the test with Karpas422 cells, the IC50 came to 5.1 µM.
On the same counts, the results for `CC1CN(C)CC(C)N1c1cc(NC(=O)Cn2cc(-c3cc(Cl)c(O)c(C(N)=O)c3)c3c(=O)n(C)cnc32)c(Cl)cn1` (stereo not drawn) [Compound I-340] are 11.6 nM, 0.0724 µM and 0.0759 µM.
Compound `C[C@H]1CNCCN1c1cc(NC(=O)Cn2cc(-c3cc(Cl)c(O)c(C(N)=O)c3)c3c(=O)n(C)cnc32)c(Cl)cn1` [Compound I-342] showed a Kd on BCL6 BTB domain of 11.3 nM. The EC50 in test [1] was 0.312 µM. In addition, the IC50 with Karpas422 cells turned out to be 0.27 µM.
As for `C[C@H]1CN(CC2CC2)CCN1c1cc(NC(=O)Cn2cc(-c3cc(Cl)c(O)c(C(N)=O)c3)c3c(=O)n(C)c(C(F)(F)F)nc32)c(Cl)cn1` [Compound I-343], the Kd on BCL6 BTB domain is 180 nM. The EC50 in test [1] amounted to 0.641 µM. In addition, the IC50 in the test with Karpas422 cells was determined as 0.383 µM.
`Cc1nc2c(c(-c3cc(C(N)=O)c(O)c(F)c3F)cn2CC(=O)Nc2cc(N3CCN(C4COC4)C[C@@H]3C)ncc2Cl)c(=O)n1C` [Compound I-344] showed a Kd at BCL6 BTB domain of 13.8 nM. In addition, the EC50 in test [1] was determined as 0.317 µM. The IC50 in the test on Karpas422 cells amounted to 0.701 µM.
`C[C@H]1CN(C2COC2)CCN1c1cc(NC(=O)Cn2cc(-c3cc(Cl)c(O)c(C(N)=O)c3)c3c(=O)n(C)cnc32)c(Cl)cn1` [Compound I-345] returned a Kd at BCL6 BTB domain of 6.15 nM. In addition, the EC50 in test [1] turned out to be 0.0927 µM. Besides, the IC50 with Karpas422 cells stood at 0.166 µM.
The corresponding values for `CN(C)C1CN(c2cc(NC(=O)Cn3cc(-c4cc(Cl)c(O)c(C(N)=O)c4)c4c(=O)n(C)cnc43)c(Cl)cn2)C1` [Compound I-347] are 57.4 nM, 0.603 µM and 0.454 µM.
On BCL6 BTB domain, `CN1CC2CCC(C1)N2c1cc(NC(=O)Cn2cc(-c3cc(Cl)c(O)c(C(N)=O)c3)c3c(=O)n(C)cnc32)c(Cl)cn1` [Compound I-348] came in with a Kd of 13.4 nM. For the same compound, in test [1], the EC50 is 0.479 µM. In addition, the IC50 with Karpas422 cells is 0.15 µM.
The corresponding values for `C[C@H]1CNCCN1c1cc(NC(=O)Cn2cc(-c3cc(C(N)=O)c(O)c4c3OCO4)c3c(=O)n(C)cnc32)c(Cl)c(F)n1` [Compound I-349] are 3.29 nM, 0.131 µM and 0.0873 µM.
As to `Cn1cnc2c(c(-c3cc(Cl)c(O)c(C(N)=O)c3)cn2CC(=O)Nc2cc(N3CCOC4(CCC4)C3)ncc2Cl)c1=O` [Compound I-350], on BCL6 BTB domain, the affinity, expressed as Kd, was 63.9 nM. Moreover, in test [1], the EC50 came to 0.486 µM. The IC50 in the test on Karpas422 cells was determined as 0.897 µM.
The corresponding values for `Cn1cnc2c(c(-c3cc(Cl)c(O)c(C(N)=O)c3)cn2CC(=O)Nc2cc(N3CC4(CCOC4)C3)ncc2Cl)c1=O` [Compound I-351] are 40.1 nM, 0.591 µM and 1.2 µM.
The compound `CN1CCN(c2cc(NC(=O)Cn3cc(-c4cc(Cl)c(O)c(C(N)=O)c4)c4c(=O)n(C)cnc43)c(Cl)cn2)C(C)(C)C1` [Compound I-352] came in with a Kd on BCL6 BTB domain of 59.7 nM. The EC50 in test [1] was 0.79 µM. In addition, the IC50 in the test with Karpas422 cells amounted to 0.346 µM.

The Kd is a measure of binding affinity in units of concentration. High values mean lower affinity, low ones higher affinity. As usually defined, the EC50 is the concentration at which the effect is half-maximal. As a reminder, the IC50 is the concentration needed to halve the response being measured.
